This passage reports IC50 and melting point results from patent US7902229B2, “Anthranilamide pyridinureas as vascular endothelial growth factor (VEGF) receptor kinase inhibitors” (Bayer Schering Pharma AG, priority 2004, dated 2011).

One may read the IC50 as the concentration that inhibits the measured activity by half. A word on the melting point: it is the temperature of the solid-liquid transition.

Data set [1] concerns the target T1, human Cytochrome P 450 isoenzyme 2C19 (Homo sapiens, UniProt P33261).
T1 construct: host or cells: baculovirus/insect cells
Briefly: Cytochrome P450 Inhibition (2C19). Type of data set: in vitro ADME. Conditions: baculovirus/insect cell-expressed human isoenzyme, according to Crespi et al.; read-out: IC50 CYP 2C19. How it is done: (§1) Cytochrome P450 Inhibition
(§2) The Cytochrome P450 isoenzyme inhibition was performed according to the publication of Crespi et al. (Anal. Biochem., 1997, 248, 188-190) with use of the baculovirus/insect cell-expressed, human Cytochrome P 450 isoenzymes (2C9 and 2C19).

For another data set, the target named is T2, KDR-Kinase (VEGFR-2) (Homo sapiens, UniProt P35968).
T2 construct: GST-kinase domain fusion construct of the KDR kinase; GST
T2 sequence (P35968 834-1162 limits assumed, species assumed): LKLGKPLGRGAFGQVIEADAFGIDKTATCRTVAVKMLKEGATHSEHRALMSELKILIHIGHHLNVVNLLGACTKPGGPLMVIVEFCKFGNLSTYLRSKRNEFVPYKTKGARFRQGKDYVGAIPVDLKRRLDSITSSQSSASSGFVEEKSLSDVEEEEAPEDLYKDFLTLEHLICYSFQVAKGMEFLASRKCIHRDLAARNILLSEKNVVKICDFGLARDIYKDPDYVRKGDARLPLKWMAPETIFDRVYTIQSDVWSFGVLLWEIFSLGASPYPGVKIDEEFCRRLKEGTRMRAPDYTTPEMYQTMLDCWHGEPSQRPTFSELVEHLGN
Nature of the data set: KDR Kinase Inhibition. It counts as biochemical. Conditions: GST-kinase domain fusion construct of the KDR kinase; poly(Glu4Tyr) substrate, 32P-ATP, 10 min. As to the method:
Kinase activity was measured with a GST-kinase domain fusion construct of the KDR kinase according to the following protocol to obtain concentration response curves. Components were added into a microtiterplate in the following sequence: 10 μl of inhibitor in threefold final concentration [3% DMSO in buffer (40 mM TrisCl pH 7.5; 1 mM DTT, 1 mM MnCl2, 10 mM MgCl2, 2.5 Promille Polyethyleneglycol 20000)] and 10 μ, of substrate mixture [24 μM ATP, 24 μg/ml poly(Glu4Tyr) in buffer, specific activity approx. 500 cpm/pmol ^32P-[…]ATP]. Reaction was started by adding 10 μl of enzyme preparation diluted appropriately in buffer that contains 10 μM vanadate. After incubation for exactly 10 min the reaction was stopped by adding of 10 μl stop solution (250 mM EDTA). 10 μl of the reaction mixture were transferred to phosphocellulose filters. The filters were washed in 0.1% phosphoric acid, dried before meltilex-scintillator was applied (Wallac, Perkin-Elmer) and the radioactivity was counted.

Data set [2] has as its target T3, human Cytochrome P 450 isoenzyme 2C9 (Homo sapiens, UniProt P11712).
T3 construct: host or cells: baculovirus/insect cells
Briefly: Cytochrome P450 Inhibition (2C9). Type of data set: in vitro ADME. Conditions: baculovirus/insect cell-expressed human isoenzyme, according to Crespi et al.; read-out: IC50 CYP 2C9. As to the method:
as §1, §2

T1 sequence (P33261 whole entry): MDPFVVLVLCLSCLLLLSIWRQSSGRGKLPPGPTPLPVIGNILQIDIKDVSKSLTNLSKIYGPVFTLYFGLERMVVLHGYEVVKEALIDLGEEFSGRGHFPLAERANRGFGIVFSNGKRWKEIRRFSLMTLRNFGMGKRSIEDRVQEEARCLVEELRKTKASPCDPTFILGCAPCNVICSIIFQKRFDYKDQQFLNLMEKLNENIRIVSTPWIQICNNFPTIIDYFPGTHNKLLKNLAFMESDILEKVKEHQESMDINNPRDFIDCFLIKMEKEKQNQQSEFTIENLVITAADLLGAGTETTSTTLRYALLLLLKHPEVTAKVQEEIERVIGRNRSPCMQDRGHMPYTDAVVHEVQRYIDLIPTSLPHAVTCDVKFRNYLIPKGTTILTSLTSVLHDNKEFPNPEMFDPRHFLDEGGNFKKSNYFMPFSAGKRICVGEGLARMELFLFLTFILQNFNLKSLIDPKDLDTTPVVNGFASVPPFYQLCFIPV
T3 sequence (P11712 whole entry): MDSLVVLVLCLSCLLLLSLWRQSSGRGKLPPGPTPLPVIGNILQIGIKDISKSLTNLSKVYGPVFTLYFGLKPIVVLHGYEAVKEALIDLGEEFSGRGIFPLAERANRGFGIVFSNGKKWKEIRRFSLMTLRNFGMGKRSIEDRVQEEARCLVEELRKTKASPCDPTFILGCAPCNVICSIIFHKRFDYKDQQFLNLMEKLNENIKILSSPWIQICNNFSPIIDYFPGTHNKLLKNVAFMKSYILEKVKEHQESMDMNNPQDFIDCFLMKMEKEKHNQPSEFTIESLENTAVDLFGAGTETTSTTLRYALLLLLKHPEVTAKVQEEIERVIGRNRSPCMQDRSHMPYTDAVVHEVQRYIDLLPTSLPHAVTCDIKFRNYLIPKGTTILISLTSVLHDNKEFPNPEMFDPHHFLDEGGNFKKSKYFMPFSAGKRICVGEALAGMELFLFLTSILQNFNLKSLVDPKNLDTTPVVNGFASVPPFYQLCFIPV

`CN(C)C(=O)Nc1cc(CNc2ccccc2C(=O)Nc2ccc3cn(C)nc3c2)ccn1` [Example 1.0, 2-{[2-(3,3-dimethyl-ureido)-pyridin-4-ylmethyl]-amino}-N-(2-methyl-2H-indazol-6-yl)-benzamide] showed a melting point of 184 °C. Moreover, in data set [1], the IC50 amounted to 19 µM. The molecule also displayed an IC50 against KDR-Kinase (VEGFR-2) of 0.025 µM. Further, in data set [2], the IC50 came out at 6.7 µM.
Turning to `CCN(CC)C(=O)Nc1cc(CNc2ccccc2C(=O)Nc2ccc3cn(C)nc3c2)ccn1` [Example 1.1, 2-{[2-(3,3-diethyl-ureido)-pyridin-4-ylmethyl]-amino}-N-(2-methyl-2H-indazol-6-yl)-benzamide], the figures for the IC50 (in data set [1]; at KDR-Kinase (VEGFR-2); in data set [2]) were 9.9 µM, 0.035 µM and 3.8 µM, respectively.
The matching figures for `CCN(C)C(=O)Nc1cc(CNc2ccccc2C(=O)Nc2ccc3cn(C)nc3c2)ccn1` [Example 1.4, 2-{[2-(3-ethyl-3-methyl-ureido)-pyridin-4-ylmethyl]-amino}-N-(2-methyl-2H-indazol-6-yl)-benzamide]: 26 µM, 0.024 µM and 6.6 µM.
Taken in the same sequence, the figures for `CN(C)C(=O)Nc1cc(CNc2ccccc2C(=O)Nc2ccc3c(ccc(=O)n3C)c2)ccn1` [Example 2.2, 2-{[2-(3,3-dimethyl-ureido)-pyridin-4-ylmethyl]-amino}-N-(1-methyl-2-oxo-1,2-dihydro-quinolin-6-yl)-benzamide] were 6.4 µM, 0.036 µM and 10 µM.
